In patent US6740663B2, “Mono- and di-fluorinated benzothiepine compounds as inhibitors of apical sodium co-dependent bile acid transport (ASBT) and taurocholate uptake” (G.D. Searle, LLC, priority 2001, dated 2004) one finds melting point data, which are given here for 13 compounds.

Usually melting point stands for the temperature, or range, at which the solid turns liquid. `CCCCC1(CCCC)CS(=O)(=O)c2ccc(N(C)C)cc2[C@@H](c2ccc(OCCCCCNC(=N)N)cc2)[C@H]1O` [Example 1422, (4R-cis)-[5-[4-[3,3-Dibutyl-7-(dimethylamino)-2,3,4,5-tetrahydro-4-hydroxy-1,1-dioxido-1-benzothiepin-5-yl]phenoxy]pentyl]guanidine] gave a melting point of 67 to 72.5 °C.

`CCCC[C@]1(CC)CS(=O)(=O)c2ccc(N3CCCC3)cc2[C@@H](c2ccc(F)cc2)[C@H]1O` [Compound 82, (3α,4β,5β)3-Butyl-3-ethyl-5-(4′-fluoropheny)-4-hydroxy-7-(1-pyrrolidinyl)-2,3,4,5-tetrahydrobenzothiepine-1,1-dioxide] had a melting point of 174.5 to 177 °C. The value for `CCCCC1(CCCC)CS(=O)(=O)c2ccc(N(C)C)cc2[C@@H](c2ccc(OCCCCCC(C(=O)O)C(=O)O)cc2)[C@H]1O` [Example 1413, (4S-cis)-[5-[4-[3,3-Dibutyl-7-(dimethylamino)-2,3,4,5-tetrahydro-4-hydroxy-1,1-dioxido-1-benzothiepin-5-yl]phenoxy]pentyl]propanedioic Acid] was 118 °C; that for `CCCCC1(CCCC)CS(=O)(=O)c2ccc(N(C)C)cc2[C@@H](c2ccc(OCc3cccc(CCC(=O)O)n3)cc2)[C@H]1O` [Example 1430, (4R-cis)-6-[[4-[3,3-Dibutyl-7-(dimethylamino)-2,3,4,5-tetrahydro-4-hydroxy-1,1-dioxido-1-benzothiepin-5-yl]phenoxy]methyl]-2-pyridinepropanoic Acid] was 105 to 107 °C; that for `CCCCC1(CCCC)CS(=O)(=O)c2ccc(N(C)C)cc2[C@@H](c2ccc(OCCCCS(N)(=O)=O)cc2)[C@H]1O` [Example 1405] was 108 to 110 °C. In turn, `CCCC[C@]1(CC)CS(=O)(=O)c2ccc(N3CCOCC3)cc2[C@@H](c2ccc(F)cc2)[C@H]1O` [Compound 83, (3α,4β,5β)3-Butyl-3-ethyl-5-(4′-fluorophenyl)-4-hydroxy-7-(1-morpholinyl)-2,3,4,5-tetrahydrobenzothiepine-1,1-dioxide] registered a melting point of 176.5 to 187.5 °C.

`CCCCC1(CCCC)CS(=O)(=O)c2ccc(N(C)C)cc2[C@@H](c2cccc(NC(=O)OCCC[N+]34CCN(CC3)CC4)c2)[C@H]1O.[Cl-]`: the melting point fell in the range of 218 to 225 °C. Next, `CCCCC1(CCCC)CS(=O)(=O)c2ccc(N(C)C)cc2[C@@H](c2ccc(OCc3ccc(C(=O)O)cc3)cc2)[C@H]1O` [Example 1424, (4R-cis)-4-[[4-[3,3-Dibutyl-7-(dimethylamino)-2,3,4,5-tetrahydro-4-hydroxy-1,1-dioxido-1-benzothiepin-5-yl]phenoxy]methyl]benzoic Acid]: 156 to 159 °C; `CCCCC1(CCCC)CS(=O)(=O)c2ccc(N(C)C)cc2[C@@H](c2ccc(OCCCCC[N+](C)(C)CC[N+](C)(C)CC)cc2)[C@H]1O` [Example 1418, (4R-cis)-N-[5-[4-[3,3-Dibutyl-7-(dimethylamino)-2,3,4,5-tetrahydro-4-hydroxy-1,1-dioxido-1-benzothiepin-5-yl]phenoxy]pentyl]-N′-ethyl-N,N,N′,N′-tetramethyl-1,2-ethanediaminium Dichloride]: 193 to 197 °C. On to `CCCCC1(CCCC)CS(=O)(=O)c2ccc(N(C)C)cc2[C@@H](c2ccc(OCCCCCc3nn[nH]n3)cc2)[C@H]1O` [Example 1420, (4R-cis)-3,3-Dibutyl-7-(dimethylamino)-2,3,4,5-tetrahydro-5-[4-[[5-(1H-tetrazol-5-yl)pentyl]oxy]phenyl]-1-benzothiepin-4-ol 1,1-Dioxide], for which the melting point was in the range of 80 to 85 °C. In turn, `CCCCC1(CCCC)CS(=O)(=O)c2ccc(N(C)C)cc2[C@@H](c2ccc(OCCCCCOc3cc(C(=O)O)nc(C(=O)O)c3)cc2)[C@H]1O` [Example 1421, (4R-cis)-4-[[5-[4-[3,3-Dibutyl-7-(dimethylamino)-2,3,4,5-tetrahydro-4-hydroxy-1,1-dioxido-1-1benzothiepin-5-yl]phenoxy]pentyl]oxy]-2,6-pyridinecarboxylic Acid] showed a melting point of 143 °C. Next, `CCCCC1(CCCC)CS(=O)(=O)c2ccc(N(C)C)cc2[C@@H](c2cccc(NC(=O)Nc3cccc(C[N+]45CCN(CC4)CC5)c3)c2)[C@H]1O.[Cl-]`: 246 to 248 °C. The value for `CCCCC1(CCCC)CS(=O)(=O)c2ccc(N(C)C)cc2[C@@H](c2ccc(OCCOCCC(C(=O)O)C(=O)O)cc2)[C@H]1O` [Example 1432, (4S-cis)-[2-[2-[4-[3,3-Dibutyl-7-(dimethylamino)-2,3,4,5-tetrahydro-4-hydroxy-1,1-dioxido-1-benzothiepin-5-yl]phenoxy]ethoxy]ethyl]propanedioic Acid] was 119.5 °C.
